In patent US20100204151A1, “USE OF A PEPTIDE AS A THERAPEUTIC AGENT” (priority 2007, published 2010):

Legend:
[1] = test system: HIV-1IIIB; assay: HIV-1 antiviral assay (CPE reduction) in CEM-SS cells; assay type: cell-based; conditions: for antiviral activity of positive control compounds: HIV-1 assay validity statement; for % CPE reduction in HIV-1 infected CEM-SS cells: test peptide 10 micrograms per ml, 6 days post-infection, MTS
[2] = test system: CEM-SS cells; assay: Cytotoxicity in the HIV-1 assay (MTS cell viability); conditions: test peptide 10 micrograms per ml
[3] = test system: HCMV strain AD169; assay: HCMV plaque reduction assay in MRC-5 cells
[4] = test system: MRSA; conditions: 5 micrograms per ml
[5] = test system: A549 cells; assay: Apoptosis prevention assay (C2 ceramide, Annexin-5); assay type: cell-based, human; conditions: 10 micrograms per ml, 30 min pretreatment, then C2 ceramide
[6] = test system: hepatitis B virus (HBV) ayw strain; assay: HBV replication assay in HepG2-2.2.15 cells (TaqMan PCR of secreted HBV DNA); assay type: cell-based; conditions: test peptide 10 micrograms per ml; six days; HBV DNA in supernatant
[7] = Cytotoxicity in the HBV assay (dye uptake cell viability); assay type: cell-based; conditions: human, HepG2-2.2.15 cells, test peptide 10 micrograms per ml
[8] = test system: A549 cells; assay: Propidium iodide cell cycle assay; assay type: cell-based, human; conditions: 10 micrograms per ml, 24 hours, propidium iodide FACS
Protocol: Human A549 cells (carcinomic human alveolar basal epithelial cells) were utilized in the experiments employing the Propidium iodide cell cycle assay. […] Propidium iodide is an intercalating agent and a fluorescent molecule that can be used to stain DNA. […] Thereafter, cells were pelleted at 1500 rpm for 5 min and resuspended in Propidium iodide solution in PBS. After incubation for 40 min at 37° C., cells were analyzed in the FACS.

[9] = test system: spleen cells; assay: Th1/Th2 cytokine profiling assay (Ovalbumin-restimulated spleen cells, CBA kit); assay type: cell-based, Balb/c mice; conditions: 10 micrograms per ml; Ovalbumin restimulation; 72 hours
[10] = in vitro; conditions: human, MRC-5 cells (embryonal lung fibroblasts)
[11] = in vitro; conditions: human, CEM-SS cells
[12] = test system: Primary Human endothelial cells (HUVEC); assay: Endothelial cell migration assay; assay type: cell-based; conditions: 10 micrograms per ml, 22 hours
[13] = test system: HUVEC; assay: Endothelial tube formation assay; assay type: cell-based, human; conditions: 10 micrograms per ml, 20 hours
Text: Positive control was vehicle only.

[14] = test system: RAW 264.7 cells; assay: Phagocytosis assay (Fluorescein-labeled Escherichia coli, flow cytometry); assay type: cell-based, mouse; conditions: 10 micrograms per ml, 30 min preincubation, 60 min ingestion
[15] = test system: Human Peripheral Blood Mononuclear Cells (PBMC); assay: T cell proliferation assay (PHA-stimulated PBMC, 3H-thymidine); conditions: 10 micrograms per ml, 3 days plus 12 hours 3H-thymidine
[16] = test system: Streptococcus pneumoniae; assay type: cell-based; conditions: 5 micrograms per ml
[17] = test system: Human Peripheral Blood Mononuclear Cells (PBMC); assay: B cell proliferation assay (SAC plus Interleukin-2 stimulated PBMC, 3H-thymidine); assay type: cell-based; conditions: 10 micrograms per ml, 3 days plus 12 hours 3H-thymidine
[18] = test system: Pseudomonas aeruginosa; assay type: cell-based; conditions: 5 micrograms per ml
[19] = test system: A549 cells; assay: Apoptosis induction assay (Annexin-5); assay type: cell-based, human; conditions: 10 micrograms per ml, 24 hours
Text: Human A549 cells (carcinomic human alveolar basal epithelial cells) were utilized in the experiments employing the Annexin-5 apoptosis assay.

[20] = test system: macrophages prepared from PBMC; assay: TNF alpha production assay (LPS-stimulated macrophages, ELISA); assay type: cell-based, human; conditions: 10 micrograms per ml, lipopolysaccharide 200 ng/ml, overnight
Text: Not stimulated macrophages served as negative background control.

Compound: Cc1cn([C@H]2C[C@H](N=[N+]=[N-])[C@@H](CO)O2)c(=O)[nH]c1=O [AZT]
- antiviral activity of positive control compounds [1]: expected levels of antiviral activity
- % CPE reduction in HIV-1 infected CEM-SS cells [1]: 99%
- % Cell viability [2]: 97%

Compound: Nc1nc(O)c2ncn(COC(CO)CO)c2n1 [Ganciclovir, reference compound]
- antiviral activity of positive control compound ([3]; HCMV assay validity statement): expected levels of antiviral activity

Compound: CC(C)(C)NC(=O)[C@@H]1CN(Cc2cccnc2)CCN1C[C@@H](O)C[C@@H](Cc1ccccc1)C(=O)N[C@H]1c2ccccc2C[C@H]1O [Indinavir, indinavir]
- antiviral activity of positive control compounds [1]: expected levels of antiviral activity

Compound: Ac-HWAVGHL-NH2 [Acetyl-GRP (20-26), Ac-His-Trp-Ala-Val-Gly-His-Leu-NH2]
- % inhibition [4]: 0.0%
- % prevention of ceramide induced apoptosis [5]: 0.0%
- % inhibition of HBV replication in HEP G2 cells [6]: 47.8%
- viability at 144 h, 10 micrograms per ml [7]: 95.3%
- Cell cycle analysis G0/G1 [8]: 59.2
- Cell cycle analysis G2/M [8]: 9.6
- Cell cycle analysis S [8]: 31.2
- IFNγ spleen cells; TH1 response (% of control) [9]: 117.9 % of control
- IL-2 spleen cells (% of control) [9]: 202.7 % of control
- IL-4 spleen cells; TH2 response (% of control) [9]: 168.7 % of control
- IL-5 spleen cells; TH2 response (% of control) [9]: 102.5 % of control
- TNF-a spleen cells; TH1 response (% of control) [9]: 145.8 % of control
- viability at 144 h [10]: 100%
- viability at 10 micrograms per ml [11]: 100%
- % inhibition of migration [12]: 50%
- % inhibition of tube formation [13]: 24%
- % plaque reduction ([3]; HCMV in MRC-5 cells, peptide 10 micrograms per ml, 7-10 days): 3.2%
- % of control phagocytosis [14]: 102.9%
- % of PHA induced control [15]: 97.5%
- % inhibition [16]: 0.0%
- % CPE reduction in HIV-1 infected CEM-SS cells [1]: 0.0%
- % of SAC/IL2 induced control [17]: 123.6%
- % inhibition [18]: 0.0%
- % of induction [19]: 1.1%
- % of LPS induction [20]: 102.4%
